The values below come from PMC11243419, “Ruthenium p-Cymene Complexes Incorporating Substituted Pyridine–Quinoline-Based Ligands: Synthesis, Characterization, and Cytotoxic Properties” (Molecules, 2024).

Like-named read-outs stand apart in the source and are kept apart here.

Data set [1] deals with carcinoma human T24 bladder cells. Further details: method as in PMID 37569273. To be noted: T24 bladder cells vs other cell lines; cited from earlier work.
Data set [2] has as its system HeLa cells. To be noted: cited from earlier work.
The test system of a further data set is HEK293T cells. The data set can be described thus: MTT cell viability assay, HEK293T cells. Format: cell-based, human. As to conditions: 48 h incubation, mean ± SD, stock in DMSO (3-Cl and cisplatin in water). On the procedure: (§1) Cell viability tests of the ligand and metal precursors (pqhyme, pqca, pcqame, [Ru(η^6-p-cymene)(μ-Cl)Cl]2) and the ruthenium(II)–arene complexes 1-Cl, 2-Cl and 3-Cl were conducted in two cell lines, including epithelial-like HEK293T cells (human embryonic kidney cells) and tumor-derived HeLa cells (cervical cancer cells), by MTT colorimetric assay, after 48 h incubation (MTT = 3-(4,5-dimethylthiazol-2-yl)-2,5-diphenyl tetrazolium bromide). For comparison, the 3-PF6 analog was also studied. Generally, a 5 to 10 mM stock solution of the complexes in DMSO (H2O for cisplatin) was prepared and diluted appropriately to reach the final concentration reported in the Materials and Methods. HeLa cancer cells were chosen since this cell line is widely used in cytotoxicity studies while the non-cancerous HEK293T cell line was used for comparison. Cytotoxicity results of all substances studied in both cell lines expressed as IC50 mean values, are summarized in Table 1, including that of cisplatin, which served as control under the same conditions. The IC50 values were calculated using a dose–response model, which was obtained from sigmoidal fitting of dose–response curves.
(§2) The HEK293T cell line (immortalized human embryonic kidney cells) and the HeLa cell line (cervical cancer cells) were obtained from ATCC. Cells were cultured at 37 °C and 5% CO2 in high glucose Dulbecco’s modified Eagle’s medium (DMEM) containing 10% fetal bovine serum (FBS), penicillin (100 units/mL), and streptomycin (100 μg/mL).
(§3) Ruthenium complexes were diluted in stock solutions of 10 mM in dimethyl sulfoxide (DMSO). A similar concentration of cisplatin dissolved in H2O was used. Cells were seeded in sterile tissue culture 96-well plates at a density of 3,000 cells per well. After 24 h, the medium was removed and replaced with fresh media containing various concentrations (0.01 μΜ, 0.1 μΜ, 1 μΜ, 10 μΜ, 25 μΜ, 40 μΜ, 55 μΜ, 70 μΜ, 85 μΜ, and 100 μΜ) of the compounds to be tested and were further incubated for 48 h at 37 °C. DMSO was used as vehicle at ≤1%. Culture medium containing the compounds (or DMSO) was removed and 100 μL of 0.5 mg/mL MTT reagent (Applichem) diluted in DMEM was added to the cells for 3 h at 37 °C. After 3 h incubation, MTT was removed and 200 μL of DMSO was added. Absorbance values of formazan were measured at 540 nm using a BioTek Synergy H1 microplate reader (Agilent). All compounds were tested in triplicate. The results were statistically analyzed using the nonlinear regression by GraphPad PRISM (Version 9) to extract IC50 values.
In general terms: Tetrazolium dyes change colour on reduction, which living cells bring about.

Data set [3] concerns HeLa cells. In words: MTT cell viability assay, HeLa cells. It is filed as cell-based, human. As to conditions: 48 h incubation, mean ± SD, stock in DMSO (3-Cl and cisplatin in water). On the procedure: as §1, §2, §3
A short description of the next data set: Solubility (qualitative). It is filed as physicochemical. As to conditions: solvents. On the procedure: The mononuclear organometallic complex 1-Cl comprising the pqhyme ligand was isolated as an orange–brown solid in high yield. […] Subsequent treatment with a saturated aqueous KPF6 solution afforded, via a metathesis reaction, the hexafluorido analog 1-PF6. Both complexes are air-stable in the solid state and melt with decomposition at 155 °C and 137 °C, respectively. The FT-IR spectra (ATR mode) of both complexes are almost identical, as expected for complexes that display very similar structures. For 1-Cl the presence of water of crystallization is evident from the intense and broad bands at ∼3350–3250 cm^−1 due to the antisymmetric and symmetric ν(O-H) stretching vibration modes. The O–H stretching vibration band from pending -CH2OH moiety is hampered within the broadness of the band reported above. Also, the strong band at approximately 1650 cm^−1 is due to the δ(H–O-H) bending mode. The characteristic bands at 3061 cm^−1, and in the region of 2998–2850 cm^−1 correspond to ν(C–H) aromatic and aliphatic stretching vibrations modes of the ligand, while the medium intensity band at ∼800 cm^−1 is typical for the stretching vibration mode of ν(Ru–C). In the region of 800-600 cm^−1, the spectrum is dominated by the very strong in-plane and out-of-plane deformation bands from the pyridine ring of pqhyme ligand. For 1-PF6, the two very strong bands at 840 cm^−1 and 557 cm^−1 are assigned to the ν3(P–F) and ν4(P–F) vibration modes of the PF6^− anion (Figure S1 of the Supplementary Materials).
The [Ru(η^6-p-cymene)(pqca)Cl]Cl complex 2-Cl was isolated in 85% yield as an orange–red air-stable solid that melts at 125 °C. Upon further heating, decomposition occurs at 150 °C, accompanied by gas evolution, leading to a black solid.
The [Ru(η^6-p-cymene)(pqcame)Cl]Cl analog 3-Cl was isolated almost quantitatively as a dark brown air-stable solid that decomposes at 111 °C. […] The FT-IR spectrum of 3-Cl is characterized by a strong asymmetric stretching vibration typical of the νas(C=O) of the ester moiety at 1722 cm^−1, shifted to higher wave numbers compared with 2-Cl. […]

Data set [4] is described as follows: Solution stability by 1H NMR spectroscopy. It is filed as physicochemical. The source says: The solution NMR spectra (^1H and ^13C{^1H}) of 1-Cl and 1-PF6 in CDCl3 feature the characteristic set of resonances of the pqhyme and p-cymene ligands supporting the proposed formulae of the compounds (Figures S2–S5 of the Supplementary Materials). Atom numbering for NMR assignment is included in Scheme 1. […] The separate and well-resolved resonance signals at δ 5.92–5.61 in a ratio of 1:1:1:1 (according to integration) are typical of the p-cymene ring protons. The characteristic singlet resonance signals at δ 5.47 for 1-Cl and 5.48 for 1-PF6 are attributed to the -CH2 protons of the pending -CH2OH moiety. These were upfield shifted compared to the p-cymene ligand of the metal precursor [43]. In addition, the septet resonance signals at δ 2.29 for 1-Cl and δ 2.44 for 1-PF6 are indicative of the -CH(CH3)2 proton, while the two […] at δ 0.87/0.91 (1-Cl) and δ 0.93/0.97 (1-PF6) can be assigned to the methyl protons of the isopropyl group. For 1-Cl, and after two days of standing in CDCl3, free p-cymene was detected (c.a. 2.6%) along with the formation of new unknown species. The ^1H NMR pattern of the spectrum remained practically unchanged (Figure S7).
The ^1H NMR spectrum of 2-Cl was recorded in DMSO-d6 at ambient temperature. […] The stability of 2-Cl in DMSO is shown below in Section 2.1.1. […] The singlet resonance at δ 8.94 is typical for H3 of the bidentate ligand, while the four separate doublet resonance signals in between δ 6.19, 6.13, 6.03, and 5.97 correspond to the p-cymene ring protons. […] In this region, the CH3 protons of the -CH-(CH3)2 moiety appear as two doublet resonances at δ 0.81 and 0.77, respectively. The ^13C NMR signals of 2-Cl were assigned by two-dimensional ^1H–^13C HSQC and ^1H–^13C HMBC methods and compared with the literature data from similar complexes. […] Analyzing the spectrum, the resonance signal at δ 166.31 is assigned to the carbon atom of the carboxylic acid group of pqca. In the aliphatic region of the spectrum, the carbon atoms from the CH3 groups of p-cymene ligand appear as intense singlets at δ 21.58, 21.21, and 18.18, respectively (Figures S12–S15).
(§4) The cytotoxicity studies of the organometallic ruthenium(II) complexes 1-Cl, 2-Cl, and 3-PF6 were carried out in dimethyl sulfoxide (DMSO) while 3-Cl was dissolved in water. According to UV–Vis spectroscopy, complexes 1-Cl and 2-Cl are stable in the media that are used for the biological assays (Figures S25–S26), while 3-Cl undergoes hydrolysis approximately 3 h after with isosbestic points at 276 nm and 322 nm, respectively (Figure S27). […] In any case, for the biological assays, freshly prepared solutions were prepared that were utilized within approximately 5–10 min.

A short description of data set [5]: Solution stability by UV-Vis spectroscopy. It is filed as physicochemical. As to conditions: for Stability in the media used for the biological assays (UV-Vis): DMSO, ambient temperature. On the procedure: To ensure the stability of the complexes for the in vitro cytotoxicity measurements, UV–Vis and ^1H NMR spectroscopic techniques were undertaken. UV–Vis spectra were recorded in DMSO (not dry), for complexes 1-Cl and 2-Cl (Figures S25–S27) and in water for complex 3-Cl (Figure 3), at ambient temperature, immediately after dissolution. The absorption spectra of 1-Cl and 2-Cl show a broad absorption band centered at ~ 435 nm, as reported for other ruthenium(II) half-sandwich arene complexes. For 3-Cl, this band becomes weaker and is blue-shifted to 422 nm. Ongoing from 1-Cl to 3-Cl, the set of high energy bands observed at 354 nm/296 nm (1-Cl), 357 nm/298 nm (2-Cl), and 357 nm/293 nm (3-Cl), are typical of metal-to-ligand charge transfer absorption bands (MLCT) and ligand-centered π–π* transitions. Within the series, ε values for these transitions range from 3000 to 9600 dm^3 mol^−1 cm^−1, with the methyl ester analog 3-Cl, displaying the higher extinction coefficient value of ∼9600 dm^3 mol^−1 cm^−1.
as §4

With `Cc1ccc(C(C)C)cc1.O=C(O)c1ccnc(-c2cc(C(=O)O)ccn2)c1.[Cl-].[Cl-].[Ru+2]`, in data set [1], the “Selectivity among cell lines” value is listed as “high selectivity toward carcinoma human T24 bladder cells”.
The IC50 is the concentration needed to halve the response being measured. In the case of `Cc1ccc(C(C)C)cc1.Nc1ccccc1O.[Cl][Ru][Cl]`, the IC50 in the data set with HeLa cells [2] is 82.9 µM.
Take `Cc1ccc(C(C)C)cc1.Nc1ccc(O)cc1.[Cl][Ru][Cl]`: the IC50 in the data set with HeLa cells [2] was 171 µM.
In the case of “4-carboxymethyl-2-(pyridin-2-yl)quinoline [pqcame]”, the figures for the IC50 in the data set with HEK293T cells and with HeLa cells [3] were 48.9 ± 3.19 µM and 56.4 ± 12.7 µM, respectively.
In the same order, the values of `Cc1ccc(C(C)C)cc1.Cc1ccc(C(C)C)cc1.[Cl][Ru][Cl].[Cl][Ru][Cl]` [[Ru(p-cymene)Cl2]2, [Ru(η^6-p-cymene)(μ-Cl)Cl]2] are 48.3 ± 1.66 µM and 48.9 ± 1.73 µM.
In the same order, the values of `N.N.[Cl][Pt][Cl]` [cis-platin, cisplatin, reference compound] are 16.4 ± 7.62 µM and 9.26 ± 1.09 µM.
As for `O=C(O)c1cc(-c2ccccn2)nc2ccccc12` [pqca, 4-carboxy-2-(pyridin-2-yl)quinoline], the IC50 came out at 87.5 ± 1.3 µM in the data set with HEK293T cells (Homo sapiens, HEK-293T) and 100 ± 3.47 µM with HeLa cells [3] (Homo sapiens, HeLa).
Turning to `OCc1cc(-c2ccccn2)nc2ccccc12` [pqhyme, 4-hydroxymethyl-2-(pyridin-2-yl)quinoline], the half-maximal inhibitory concentration (IC50) with HEK293T cells (Homo sapiens, HEK-293T) came to 2.67 ± 1.23 µM; in the data set on HeLa cells [3] (Homo sapiens, HeLa), 12.8 ± 1.01 µM.
On to [Ru(η^6-p-cymene)(pqca)Cl][Cl] [2-Cl], for which, in the data set on HEK293T cells, the IC50 was 180 ± 49.1 µM. The IC50 in the data set with HeLa cells [3] is 162 ± 21.3 µM. The Solubility result in “Solubility (qualitative)” was “soluble in polar organic solvents (MeOH, EtOH, water) including DMSO and DMF”. For the same molecule, in data set [4] (DMSO-d6), the “Period of 1H NMR monitoring showing stability” value is on record as “more than 72 h” and the “Stability in DMSO-d6 (1H NMR)” value is “practically remains stable”. In data set [5], the “Stability in the media used for the biological assays (UV-Vis)” value is recorded as “stable”.
As to [Ru(η^6-p-cymene)(pqcame)Cl][Cl] [3-Cl], the IC50 in the data set on HEK293T cells was over 115 µM; in the data set on HeLa cells [3] it was over 80 µM. Moreover, in “Solubility (qualitative)”, the Solubility result is “dissolves in water, DMSO, and other polar solvents”. Moreover, the “Time until hydrolysis (UV-Vis, isosbestic points at 276 nm and 322 nm)” value in data set [5] (in water) is “approximately 3 h”.
For “[Ru(η^6-p-cymene)(pqcame)Cl][PF6] [3-PF6]”, the IC50 with HEK293T cells was 145 ± 16.2 µM; in the data set with HeLa cells [3], 134 ± 3.3 µM.
On to [Ru(η^6-p-cymene)(pqhyme)Cl][Cl] [1-Cl], for which the IC50 in the data set on HeLa cells [3] worked out at 119 ± 1.29 µM. The Solubility result in the data set “Solubility (qualitative)” is “dissolves in DMSO, and water and is less soluble in CHCl3”. Also, the “Stability in DMSO-d6 (1H NMR)” value in data set [4] (DMSO-d6) is recorded as “stable”. Moreover, the “Free p-cymene detected (1H NMR)” value in data set [4] (after two days of standing in CDCl3) was about 2.6%. Further, in data set [5], the “Stability in the media used for the biological assays (UV-Vis)” value is reported as “stable”.
